Data as given in patent US20240043404A1 (AbbVie Inc., priority 2009, published 2024).
Like-named read-outs stand apart in the source and are kept apart here.

Test system: RS4;11 cells
Assay: RS4;11 cell viability assay (CellTiter Glo);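 also: acute lymphoblastic leukemia line RS4,11, EC50 derived from percentage of viable cells after treatment relative to untreated controls, cell killing taken as a measure of Bcl-2 inhibition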
Type: cell-based, human
Conditions: read-out: RS4
[1] = Homo sapiens, RS4-11, 48 h, 50,000 cells per well, 10% human serum, 48 hours, 11 EC50 Values

Method: The acute lymphoblastic leukemia (ALL) cell line RS4;11 was used as the primary human cell line to assess the cellular activity of Bcl-2 selective agents in vitro and their efficacy in vivo.
Cell cytotoxicity EC50 values were assessed using CellTiter Glo (Promega) according to the manufacturer's recommendations. The EC50 values were determined as a percentage of viable cells following treatment compared to the untreated control cells.

CC1(C)CCC(CN2CCN(c3ccc(C(=O)NS(=O)(=O)c4ccc(N5CCC(N6CCOCC6)CC5)c([N+](=O)[O-])c4)c(Oc4cnc5[nH]ccc5c4)c3)CC2)=C(c2ccc(Cl)cc2)C1 [Example 223, 4-(4-{[2-(4-chlorophenyl)-4,4-dimethylcyclohex-1-en-1-yl]methyl}piperazin-1-yl)-N-({4-[4-(morpholin-4-yl)piperidin-1-yl]-3-nitrophenyl}sulfonyl)-2-(1H-pyrrolo[2,3-b]pyridin-5-yloxy)benzamide]
EC50 [1]: 182 nM

CC1(C)CCC(CN2CCN(c3ccc(C(=O)NS(=O)(=O)c4ccc(NCC5CCN(C6CC6)CC5)c([N+](=O)[O-])c4)c(Oc4cnc5[nH]ccc5c4)c3)CC2)=C(c2ccc(Cl)cc2)C1 [Example 164, 4-(4-{[2-(4-chlorophenyl)-4,4-dimethylcyclohex-1-en-1-yl]methyl}piperazin-1-yl)-N-[(4-{[(1-cyclopropylpiperidin-4-yl)methyl]amino}-3-nitrophenyl)sulfonyl]-2-(1H-pyrrolo[2,3-b]pyridin-5-yloxy)benzamide]
EC50 [1]: 14.8 nM

CC1(C)CCC(CN2CCN(c3ccc(C(=O)NS(=O)(=O)c4ccc(NCC5COCCN5C5CCC5)c([N+](=O)[O-])c4)c(Oc4cnc5[nH]ccc5c4)c3)CC2)=C(c2ccc(Cl)cc2)C1 (centres unmarked) [Example 170, 4-(4-{[2-(4-chlorophenyl)-4,4-dimethylcyclohex-1-en-1-yl]methyl}piperazin-1-yl)-N-[(4-{[(4-cyclobutylmorpholin-3-yl)methyl]amino}-3-nitrophenyl)sulfonyl]-2-(1H-pyrrolo[2,3-b]pyridin-5-yloxy)benzamide]
EC50 [1]: 125 nM

CC(C)N1CCC(Nc2ccc(S(=O)(=O)NC(=O)c3ccc(N4CCN(CC5=C(c6ccc(Cl)cc6)CC(C)(C)CC5)CC4)cc3Oc3cnc4[nH]ccc4c3)cc2[N+](=O)[O-])CC1 [Example 226, 4-(4-{[2-(4-chlorophenyl)-4,4-dimethylcyclohex-1-en-1-yl]methyl}piperazin-1-yl)-N-({4-[(1-isopropylpiperidin-4-yl)amino]-3-nitrophenyl}sulfonyl)-2-(1H-pyrrolo[2,3-b]pyridin-5-yloxy)benzamide]
EC50 [1]: 118 nM

CC1(C)CCC(CN2CCN(c3ccc(C(=O)NS(=O)(=O)c4cnc(OC[C@@H]5C[C@H]6C[C@@H]5C[C@@]6(C)O)c(Cl)c4)c(Oc4cnc5[nH]ccc5c4)c3)CC2)=C(c2ccc(Cl)cc2)C1 [Example 339, N-[(5-chloro-6-{[(1R,2R,4R,5R)-5-hydroxy-5-methylbicyclo[2.2.1]hept-2-yl]methoxy}pyridin-3-yl)sulfonyl]-4-(4-{[2-(4-chlorophenyl)-4,4-dimethylcyclohex-1-en-1-yl]methyl}piperazin-1-yl)-2-(1H-pyrrolo[2,3-b]pyridin-5-yloxy)benzamide]
EC50 [1]: 450 nM

CC1(C)CCC(CN2CCN(c3ccc(C(=O)NS(=O)(=O)c4ccc(NCC5CCOCC5)c(Cl)c4)c(Oc4cnc5[nH]ccc5c4)c3)CC2)=C(c2ccc(Cl)cc2)C1 [Example 306, 4-(4-{[2-(4-chlorophenyl)-4,4-dimethylcyclohex-1-en-1-yl]methyl}piperazin-1-yl)-N-({3-chloro-4-[(tetrahydro-2H-pyran-4-ylmethyl)amino]phenyl}sulfonyl)-2-(1H-pyrrolo[2,3-b]pyridin-5-yloxy)benzamide]
EC50 [1]: 553 nM

CC1(C)CCC(CN2CCN(c3ccc(C(=O)NS(=O)(=O)c4ccc(NC[C@H]5CC[C@](C)(O)CC5)c([N+](=O)[O-])c4)c(Oc4cnc5[nH]ccc5c4)c3)CC2)=C(c2ccc(Cl)cc2)C1 [Example 338, 4-(4-{[2-(4-chlorophenyl)-4,4-dimethylcyclohex-1-en-1-yl]methyl}piperazin-1-yl)-N-[(4-{[(cis-4-hydroxy-4-methylcyclohexyl)methyl]amino}-3-nitrophenyl)sulfonyl]-2-(1H-pyrrolo[2,3-b]pyridin-5-yloxy)benzamide]
EC50 (50,000 cells per well, 10% human serum, 48 hours, 11 EC50 Values): 3.4 nM

CC1(C)CCC(CN2CCN(c3ccc(C(=O)NS(=O)(=O)c4ccc(OCC5CCOCC5)c(C#N)c4)c(Oc4cnc5[nH]ccc5c4)c3)CC2)=C(c2ccc(Cl)cc2)C1 [Example 284, 4-(4-{[2-(4-chlorophenyl)-4,4-dimethylcyclohex-1-en-1-yl]methyl}piperazin-1-yl)-N-{[3-cyano-4-(tetrahydro-2H-pyran-4-ylmethoxy)phenyl]sulfonyl}-2-(1H-pyrrolo[2,3-b]pyridin-5-yloxy)benzamide]
EC50 [1]: 162 nM

CC1(C)CCC(CN2CCN(c3ccc(C(=O)NS(=O)(=O)c4ccc(N[C@H]5CC[C@H](N(CC6CC6)CC6CC6)CC5)c([N+](=O)[O-])c4)c(Oc4cnc5[nH]ccc5c4)c3)CC2)=C(c2ccc(Cl)cc2)C1 [Example 64, Trans-N-{[4-({4-[bis(cyclopropylmethyl)amino]cyclohexyl}amino)-3-nitrophenyl]sulfonyl}-4-(4-{[2-(4-chlorophenyl)-4,4-dimethylcyclohex-1-en-1-yl]methyl}piperazin-1-yl)-2-(1H-pyrrolo[2,3-b]pyridin-5-yloxy)benzamide]
EC50 [1]: 0.25 nM

CC1(C)CCC(CN2CCN(c3ccc(C(=O)NS(=O)(=O)c4ccc(NCC5CCOCC5)c([N+](=O)[O-])c4)c(Oc4ccc5[nH]ccc5c4)c3)CC2)=C(c2ccc(Cl)cc2)C1 [Example 18, 4-(4-{[2-(4-chlorophenyl)-4,4-dimethylcyclohex-1-en-1-yl]methyl}piperazin-1-yl)-2-(1H-indol-5-yloxy)-N-({3-nitro-4-[(tetrahydro-2H-pyran-4-ylmethyl)amino]phenyl}sulfonyl)benzamide]
EC50 [1]: 86 nM | EC50 (Homo sapiens, RS4-11, Table 5, direct comparison Z=N with corresponding analogs Z=C, 11 EC50): 86 nM

CC1(C)CCC(CN2CCN(c3ccc(C(=O)NS(=O)(=O)c4cnc(OCC5(F)CCOCC5)c(F)c4)c(Oc4cnc5[nH]ccc5c4)c3)CC2)=C(c2ccc(Cl)cc2)C1 [Example 248, 4-(4-{[2-(4-chlorophenyl)-4,4-dimethylcyclohex-1-en-1-yl]methyl}piperazin-1-yl)-N-({5-fluoro-6-[(4-fluorotetrahydro-2H-pyran-4-yl)methoxy]pyridin-3-yl}sulfonyl)-2-(1H-pyrrolo[2,3-b]pyridin-5-yloxy)benzamide]
EC50 [1]: 99.6 nM

CC1(C)CCC(CN2CCN(c3ccc(C(=O)NS(=O)(=O)c4ccc(NCCC#N)c([N+](=O)[O-])c4)c(Oc4cnc5[nH]ccc5c4)c3)CC2)=C(c2ccc(Cl)cc2)C1 [Example 62, 4-(4-{[2-(4-chlorophenyl)-4,4-dimethylcyclohex-1-en-1-yl]methyl}piperazin-1-yl)-N-({4-[(2-cyanoethyl)amino]-3-nitrophenyl}sulfonyl)-2-(1H-pyrrolo[2,3-b]pyridin-5-yloxy)benzamide]
EC50 [1]: 25.1 nM

CC1(C)CCC(CN2CCN(c3ccc(C(=O)NS(=O)(=O)c4ccc(NC[C@@H]5CN(C6CC6)CCO5)c([N+](=O)[O-])c4)c(Oc4cnc5[nH]ccc5c4)c3)CC2)=C(c2ccc(Cl)cc2)C1 [Example 326, 4-(4-{[2-(4-chlorophenyl)-4,4-dimethylcyclohex-1-en-1-yl]methyl}piperazin-1-yl)-N-{[4-({[(2R)-4-cyclopropylmorpholin-2-yl]methyl}amino)-3-nitrophenyl]sulfonyl}-2-(1H-pyrrolo[2,3-b]pyridin-5-yloxy)benzamide]
EC50 [1]: 23.1 nM
